Experimental data reported in patent publication US5506239A, “Carbostyril derivative and platelets aggregation inhibitory agent” (Otsuka Pharmaceutical Co., Ltd., priority 1991, dated 1996).

How the values were obtained:
platelets [1] = assay: Platelets aggregation inhibitory activity (method of Born et al.), collagen-induced, human PRP (Pharmacological Test I); format: cell-based, man; conditions: Homo sapiens, Platelet, 20 μg/ml collagen, 37° C., read-out: IC50 Collagen (50% platelets aggregation inhibition)
Procedure: (§1) The platelets aggregation inhibitory activity of each test compound was measured by the method of Born et al. [J. Physiol., London, 162, 67 (1962)], using Platelets Aggregation Tracer manufactured by Nikoh Bioscience Co., Ltd.
(§2) 9 volumes of a blood collected from person was mixed with 1 volume of a 3.8% aqueous sodium citrate solution. Part of the mixture was subjected to centrifugation at 1,100 rpm for 10 minutes to obtain a platelet rich plasma (PRP). The remainder of the mixture was also subjected to centrifugation at 3,000 rpm for 10 minutes to obtain a platelet poor plasma (PPP).
(§3) The number of platelets in the PRP was measured using Coulter Counter manufactured by Coulter Electronics Inc. Then, the PRP was diluted with the PPP so that the number of platelets in the dilution became 300,000, whereby a PRP solution was prepared.
(§4) 200 μl of this PRP solution and 2 ml of a solution containing a test compound at a given concentration were placed in an aggregation measurement cell and heated at 37° C. for 1 minute. Thereto was added 20 μl of adenosine diphosphate (ADP manufactured by Sigma Co.) or a collagen suspension (Collagen Reagent manufactured by Horm, Hormon-Chemie, Gmbh) to induce aggregation of platelets. The resulting mixture in the cell was measured for change of transmittance, after which a platelets aggregation curve was prepared. Incidentaly, the concentration of ADP or collagen was selected so that the final Concentration became 7.5 μM or 20 μg/ml.
(§5) Using the platelets aggregation curve, there was calculated a maximum aggregation rate (MAR) of platelets using the followoing formula: […]
(§6) wherein a represents a transmittance of the PRP obtained in the same manner; c represents a transmittance of the PPP obtained in the same manner; and b represents a transmittance at the maximum change, of the PRP solution containng the test compound and the aggregation inducer.
(§7) A MAR was also calculated as above, for the control containing no test compound.
(§8) Using the above two MARs, there were calculated platelets aggregation inhibitions (%) of each test compound at various concentrations using the following formula.
(§9) Inhibition=[1-(MAR of PRP solution containing test compound)/(MAR of PRP
(§10) solution containing no test compound)]×100
(§11) Using the above obtained platelets aggregation inhibitions (%) of each test compound at various concentrations, there was calculated a concentration (IC50) of each test compound for 50% platelets aggregation inhibition.

platelets [2] = assay: Platelets aggregation inhibitory activity (method of Born et al.), ADP-induced, human PRP (Pharmacological Test I); format: cell-based, man; conditions: 7.5 μM ADP, 37° C., read-out: IC50 ADP (50% platelets aggregation inhibition)
Procedure: as §1, §2, §3, §4, §5, §6, §7, §8, §9, §10, §11

`O=c1ccc2cc(OCCCCN(CCN3CCOCC3)CC3CCCCCCC3)ccc2[nH]1` [Example 45] showed an IC50 (platelets [1]) of 25 µM and an IC50 (platelets [2]; Homo sapiens, Platelet) of 22 µM.
With `O=C1CC[C@@H](CO)N1CCN(CCCCCOc1ccc2[nH]c(=O)ccc2c1)Cc1ccccc1` [Example 55] the IC50 (platelets [1]) was 2.6 µM and the IC50 (platelets [2]; Homo sapiens, Platelet) was 3.7 µM.
`Cc1ccc(CN(CCCCCOc2ccc3[nH]c(=O)ccc3c2)CCN2CCC(O)CC2)cc1` [Example 32] showed an IC50 (platelets [1]) of 6.1 µM and an IC50 (platelets [2]; Homo sapiens, Platelet) of 4.8 µM.
`O=c1ccc2cc(OCCCCN(CCN3CCC4(CC3)OCCO4)CC3CCCCCCC3)ccc2[nH]1` [Example 47] showed an IC50 (platelets [1]) of 29 µM and an IC50 (platelets [2]; Homo sapiens, Platelet) of 25 µM.
In the case of `O=c1ccc2cc(OCCCS(=O)(=O)N(CCN3CCOCC3)CC3CCCCCCC3)ccc2[nH]1` [Example 98], the IC50 (platelets [1]) is reported as 12 µM and the IC50 (platelets [2]; Homo sapiens, Platelet) is reported as 9.1 µM.
`CCOC(=O)CN(CC1CCCCCCC1)S(=O)(=O)CCCOc1ccc2[nH]c(=O)ccc2c1` [Example 114] showed an IC50 (platelets [1]) of 4 µM and an IC50 (platelets [2]; Homo sapiens, Platelet) of 6.5 µM.
Compound `CN(C)C1CCN(CCN(CC2CCCCCCC2)S(=O)(=O)CCCOc2ccc3[nH]c(=O)ccc3c2)CC1` [Example 100] has an IC50 (platelets [1]) of 6.5 µM and an IC50 (platelets [2]; Homo sapiens, Platelet) of 13 µM.
`O=c1ccc2cc(OCCCCCN(CCN3CCC(O)CC3)Cc3cccs3)ccc2[nH]1` [Example 40] showed an IC50 (platelets [1]) of 10 µM and an IC50 (platelets [2]; Homo sapiens, Platelet) of 13 µM.
Work on `O=c1ccc2cc(OCCCS(=O)(=O)N(CCN3CCC[C@H]3CO)CC3CCCCCCC3)ccc2[nH]1` [Example 103] yielded an IC50 (platelets [1]) of 3.2 µM and an IC50 (platelets [2]; Homo sapiens, Platelet) of 2.6 µM.
For `O=c1ccc2cc(OCCCCCN(CCn3ccnc3)Cc3ccccc3)ccc2[nH]1` [Example 69], the IC50 (platelets [1]) was 9.5 µM and the IC50 (platelets [2]; Homo sapiens, Platelet) was 15 µM.
Work on `O=c1ccc2cc(OCCCCCN(CCN3CCN(CCO)CC3)Cc3ccccc3)ccc2[nH]1` [Example 57] yielded an IC50 (platelets [1]) of 17 µM and an IC50 (platelets [2]; Homo sapiens, Platelet) of 18 µM.
`O=c1ccc2cc(OCCCCCN(CCN3CCC(O)CC3)Cc3ccccc3)ccc2[nH]1` [Example 29] was tested, and the IC50 (platelets [1]) was 6.3 µM and the IC50 (platelets [2]; Homo sapiens, Platelet) was 12 µM.
`CN(C(=S)CCCOc1ccc2[nH]c(=O)ccc2c1)C1CCCCC1` [Example 135] showed an IC50 (platelets [2]) of 22 µM.
`O=c1ccc2cc(OCCCS(=O)(=O)N(CCN3CCC(O)CC3)CC3CCCCC3)ccc2[nH]1` [Example 82] showed an IC50 (platelets [1]) of 3.8 µM and an IC50 (platelets [2]; Homo sapiens, Platelet) of 4.5 µM.
`CN(C)C1CCN(CCN(CCCCOc2ccc3[nH]c(=O)ccc3c2)CC2CCCCCCC2)CC1` [Example 46] gave an IC50 (platelets [1]) of 20 µM and an IC50 (platelets [2]; Homo sapiens, Platelet) of 20 µM.
Work on `O=c1ccc2cc(OCCCCS(=O)(=O)N(CCN3CCCS3(=O)=O)Cc3ccccc3)ccc2[nH]1` [Example 105] yielded an IC50 (platelets [1]) of 1.1 µM and an IC50 (platelets [2]; Homo sapiens, Platelet) of 2.2 µM.
`O=c1ccc2cc(OCCCCCN(CCN3CCC(O)CC3)Cc3ccc(Cl)c(Cl)c3)ccc2[nH]1` [Example 36] gave an IC50 (platelets [1]) of 20 µM and an IC50 (platelets [2]; Homo sapiens, Platelet) of 11 µM.
For `COc1ccc(CN(CCCCCOc2ccc3[nH]c(=O)ccc3c2)CCN2CCC(O)CC2)cc1OC` [Example 35], the IC50 (platelets [1]) was 11 µM and the IC50 (platelets [2]; Homo sapiens, Platelet) was 11 µM.
For `O=c1ccc2cc(OCCCCN(Cc3ccccc3)S(=O)(=O)CCCn3ccnc3)ccc2[nH]1` [Example 122], the IC50 (platelets [1]) was 29 µM and the IC50 (platelets [2]; Homo sapiens, Platelet) was 22 µM.
`CN(C(=O)NCCCOc1ccc2[nH]c(=O)ccc2c1)C1CCCCC1` [Example 133] gave an IC50 (platelets [2]; Homo sapiens, Platelet) of 2.9 µM.
Compound `O=c1ccc2cc(OCCCCCN(CCN(CCO)CCO)Cc3ccccc3)ccc2[nH]1` [Example 58] has an IC50 (platelets [1]) of 4.8 µM and an IC50 (platelets [2]; Homo sapiens, Platelet) of 3.8 µM.
Work on `CC(=O)NCCN(CC1CCCCCCC1)S(=O)(=O)CCCOc1ccc2[nH]c(=O)ccc2c1` [Example 111] yielded an IC50 (platelets [1]) of 2.9 µM and an IC50 (platelets [2]; Homo sapiens, Platelet) of 2.2 µM.
Work on `N#Cc1ccc(CN(CCCCCOc2ccc3[nH]c(=O)ccc3c2)CCN2CCC(O)CC2)cc1` [Example 33] yielded an IC50 (platelets [1]) of 9.1 µM and an IC50 (platelets [2]; Homo sapiens, Platelet) of 5.6 µM.
`O=c1ccc2cc(OCCCCN(Cc3ccccc3)S(=O)(=O)CCCN3CCC[C@H]3CO)ccc2[nH]1` [Example 126] gave an IC50 (platelets [1]) of 15 µM and an IC50 (platelets [2]; Homo sapiens, Platelet) of 10 µM.
With `O=C(CN1CCC(O)CC1)N(CCCCOc1ccc2[nH]c(=O)ccc2c1)CC1CCCCCCC1` [Example 21] the IC50 (platelets [1]) was 3.1 µM and the IC50 (platelets [2]; Homo sapiens, Platelet) was 4.2 µM.
Work on `O=c1ccc2cc(OCCCCS(=O)(=O)N(CCN3CCC[C@H]3CO)CC3CCCCC3)ccc2[nH]1` [Example 104] yielded an IC50 (platelets [1]) of 2.3 µM and an IC50 (platelets [2]; Homo sapiens, Platelet) of 3.5 µM.
Compound `O=c1ccc2cc(OCCCCS(=O)(=O)N(CCNCCO)CC3CCCCCCC3)ccc2[nH]1` [Example 108] has an IC50 (platelets [1]) of 2 µM and an IC50 (platelets [2]; Homo sapiens, Platelet) of 2.9 µM.
`O=S(=O)(CCCOc1ccc2[nH]c(=S)ccc2c1)N(CCN1CCC(O)CC1)c1ccccc1` [Example 87] gave an IC50 (platelets [2]; Homo sapiens, Platelet) of 4.7 µM.
